3 compounds from patent USRE40387E1, “Pharmaceutical compositions, dosage forms and methods for oral administration of epothilones” (Bristol-Myers Squibb Company, priority 2001, dated 2008) can be followed below.

Each structure is given as a SMILES string.

This data set is described as follows: in vitro. The note with it: human, Caco-2. The protocol:
The Pc of some model compounds, for which the bioavailability in humans is known, was also determined in the same experiment.

For the compound `O=C(O)c1ccccc1O` [salicylic acid, reference compound], the Papp was above 20 ×10⁻⁶ cm/s.

As to `CC(C)Cc1ccc(C(C)C(=O)O)cc1` (stereo not drawn) [ibuprofen, reference compound], the Papp is above 20 ×10⁻⁶ cm/s. Under `CC(=O)Nc1ccc(O)cc1` [acetaminophen, reference compound] stands above 20 ×10⁻⁶ cm/s.

The term Papp denotes a coefficient for how fast a substance crosses the barrier. Lower therefore signals slow passage.
